Experimental data from BigSolDB 2.1.

CC(=O)N[C@@H](C)C(=O)O
solubility (mole fraction)
Settings | 283.15 K | 288.15 K | 293.15 K | 298.15 K | 303.15 K | 308.15 K | 313.15 K | 318.15 K | 323.15 K
in 2-butanone | 0.0111 | 0.0132 | 0.0161 | 0.0186 | 0.0215 | 0.026 | 0.03 | 0.0358 | 0.0437
in acetone | 0.0224 | 0.028 | 0.0329 | 0.0372 | 0.0446 | 0.0524 | 0.0638 | 0.0819 | 0.103
in acetonitrile | 0.00594 | 0.00727 | 0.00871 | 0.0114 | 0.0136 | 0.0177 | 0.0226 | 0.0312 | 0.0385
in dimethyl carbonate | 0.00223 | 0.00261 | 0.00319 | 0.00376 | 0.00449 | 0.00543 | 0.00668 | 0.00841 | 0.0103
in ethanol | 0.111 | 0.127 | 0.138 | 0.156 | 0.174 | 0.198 | 0.217 | 0.235 | 0.267
in ethyl acetate | 0.00433 | 0.00521 | 0.0062 | 0.00718 | 0.00806 | 0.00947 | 0.0112 | 0.0131 | 0.0156
in isobutanol | 0.0571 | 0.063 | 0.0718 | 0.0798 | 0.0916 | 0.107 | 0.12 | 0.132 | 0.145
in isopentanol | 0.0527 | 0.0563 | 0.0636 | 0.0713 | 0.0823 | 0.0949 | 0.108 | 0.125 | 0.139
in isopropanol | 0.0781 | 0.0901 | 0.1 | 0.113 | 0.13 | 0.148 | 0.162 | 0.175 | 0.195
in methyl acetate | 0.00578 | 0.00705 | 0.00861 | 0.00997 | 0.0114 | 0.0135 | 0.0162 | 0.0196 | 0.0242
in n-butanol | 0.0633 | 0.0707 | 0.0784 | 0.0869 | 0.0982 | 0.114 | 0.127 | 0.143 | 0.157
in n-butyl acetate | 0.00354 | 0.00382 | 0.00417 | 0.00455 | 0.00504 | 0.00573 | 0.00654 | 0.00771 | 0.00892
in n-pentanol | 0.0516 | 0.0546 | 0.0621 | 0.0695 | 0.0805 | 0.0915 | 0.106 | 0.12 | 0.137
in n-propanol | 0.0858 | 0.0937 | 0.104 | 0.118 | 0.133 | 0.153 | 0.168 | 0.186 | 0.213
in n-propyl acetate | 0.003 | 0.00352 | 0.00421 | 0.00495 | 0.00558 | 0.00642 | 0.00755 | 0.00913 | 0.0109
in sec-butanol | 0.068 | 0.0759 | 0.0892 | 0.101 | 0.113 | 0.129 | 0.144 | 0.161 | 0.175
